Laboratory results published in patent US11986471B2, “Compounds and methods of use” (Tango Therapeutics, Inc., priority 2018, dated 2024).

How the values were obtained:
PRMT5 [1] = target: T1, PRMT5 (Homo sapiens, UniProt O14744); assay: PRMT5 IC50 assay in the presence of SAM as cofactor; format: biochemical
T1 construct: purchased Viva (custom protein)
In short: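 Cofactor-free, SAM and MTA formats; IC50 μM; Ki = IC50/1.5 for SAM, IC50/13.5 for MTA.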

PRMT5 [2] = target: T1, PRMT5; assay: PRMT5 IC50 assay with no cofactor; format: biochemical
In short: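 Human PRMT5 inhibition, IC50 in μM; cofactor varied (SAM / MTA / none).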

PRMT5 [3] = target: T1, PRMT5; assay: PRMT5 IC50 assay in the presence of MTA as cofactor; format: biochemical; conditions: for IC50: PRMT5, MTA as cofactor; for SAM/MTA Ratio: ratio between the Ki in the presence of SAM and the Ki in the presence of MTA
In short: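 Each compound is tested on PRMT5 in the presence of SAM, of MTA, and without any cofactor. Ki values are then back-calculated using fixed factors of 1.5 (SAM) and 13.5 (MTA), and the two Ki values are compared as a ratio.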

HAP1 MTAP-intact = assay: SDMA in-cell western assay, HAP1 MTAP-intact cell line; format: cell-based; conditions: Homo sapiens
In short: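 Cells from two matched HAP1 lines, MTAP-null and MTAP-expressing at endogenous levels, are treated with compound. SDMA is then quantified by in-cell western and an IC50 is calculated for each line.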

HAP1 MTAP-deleted = assay: SDMA in-cell western assay, HAP1 MTAP-deleted cell line; format: cell-based; conditions: for IC50: Homo sapiens, HAP1 MTAP-deleted cell line; for MTAP Intact/Deleted Ratio: IC50 ratio HAP1 MTAP-intact / HAP1 MTAP-deleted
In short: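 MTAP-null HAP1 cells, the deleted member of an isogenic pair with endogenously MTAP-expressing HAP1, are treated with compound. SDMA is then quantified by in-cell western and an IC50 is calculated.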

T1 sequence (O14744 whole entry): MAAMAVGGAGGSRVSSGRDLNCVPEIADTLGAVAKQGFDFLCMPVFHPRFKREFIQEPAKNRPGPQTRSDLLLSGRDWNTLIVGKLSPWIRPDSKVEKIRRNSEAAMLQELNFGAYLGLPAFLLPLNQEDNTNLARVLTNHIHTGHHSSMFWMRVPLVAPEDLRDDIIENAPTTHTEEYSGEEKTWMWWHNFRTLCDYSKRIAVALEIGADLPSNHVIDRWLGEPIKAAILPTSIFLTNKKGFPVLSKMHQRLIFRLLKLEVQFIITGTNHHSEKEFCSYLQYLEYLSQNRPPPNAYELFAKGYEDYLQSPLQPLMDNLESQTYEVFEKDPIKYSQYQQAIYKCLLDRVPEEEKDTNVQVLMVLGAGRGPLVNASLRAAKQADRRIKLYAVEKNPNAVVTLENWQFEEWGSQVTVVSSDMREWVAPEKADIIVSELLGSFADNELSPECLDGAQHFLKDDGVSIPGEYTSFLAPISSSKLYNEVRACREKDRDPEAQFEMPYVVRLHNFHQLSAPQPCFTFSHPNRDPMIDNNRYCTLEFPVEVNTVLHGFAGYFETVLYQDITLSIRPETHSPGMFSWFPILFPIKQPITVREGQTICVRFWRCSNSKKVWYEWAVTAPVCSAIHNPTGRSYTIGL
T1 sequence (Q9BQA1 whole entry partner): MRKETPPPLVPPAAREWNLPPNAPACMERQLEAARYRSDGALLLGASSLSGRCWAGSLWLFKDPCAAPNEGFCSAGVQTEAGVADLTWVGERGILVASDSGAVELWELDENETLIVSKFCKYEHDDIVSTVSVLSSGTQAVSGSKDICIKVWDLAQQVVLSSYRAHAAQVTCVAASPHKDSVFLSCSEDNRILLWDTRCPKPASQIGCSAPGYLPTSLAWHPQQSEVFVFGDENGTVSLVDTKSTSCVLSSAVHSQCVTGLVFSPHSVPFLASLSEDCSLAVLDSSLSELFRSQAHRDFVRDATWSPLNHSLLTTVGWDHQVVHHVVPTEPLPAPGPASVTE

Row | SMILES | IC50 (PRMT5 [1]) | IC50 (PRMT5 [2]) | IC50 (PRMT5 [3]) | IC50 (HAP1 MTAP-intact) | IC50 (HAP1 MTAP-deleted) | SAM/MTA Ratio (PRMT5 [3]) | MTAP Intact/Deleted Ratio (HAP1 MTAP-deleted)
1 | CCN(C)c1cc(C(=O)NC[C@H](O)CN2CCc3cc(OCc4cnco4)ccc3C2)cc(NC2CCC2)n1 [Compound 438, (S)-2-(cyclobutylamino)-6-(ethyl(methyl)amino)-N-(2-hydroxy-3-(6-(oxazol-5-ylmethoxy)-3,4-dihydroisoquinolin-2(1H)-yl)propyl)isonicotinamide] | 0.5 to 5 µM | ≥ 5 µM | 0.05 to 0.5 µM | 1 to 10 µM | 1 to 10 µM | A (a Ki ratio greater than or equal to 10 fold between the Ki in the presence of SAM and the Ki in the presence of MTA) | C* (an IC50 ratio of less than 3 fold between the IC50 in the HAP1 MTAP-intact cell line and the HAP1 MTAP-deleted cell line)
2 | Cc1ncoc1COc1ccc2c(c1C)CCN(C[C@@H](O)CNC(=O)c1ccc(OC3CCN(Cc4ccncc4)CC3)cc1)C2 [Compound 440, N-[(2S)-2-hydroxy-3-{5-methyl-6-[(4-methyl-1,3-oxazol-5-yl)methoxy]-1,2,3,4-tetrahydroisoquinolin-2-yl}propyl]-4-({1-[(pyridin-4-yl)methyl]piperidin-4-yl}oxy)benzamide] | 0.05 to 0.5 µM | 0.5 to 5 µM | 0.05 to 0.5 µM | ≥ 10 µM | 1 to 10 µM | A (a Ki ratio greater than or equal to 10 fold between the Ki in the presence of SAM and the Ki in the presence of MTA) | B* (an IC50 ratio greater than or equal to 3 fold but lower than 10 fold between the IC50 in the HAP1 MTAP-intact cell line and the HAP1 MTAP-deleted cell line)
3 | O=C(NC[C@H](O)CN1CCc2c(ccc(OCc3cnco3)c2Cl)C1)c1ccnc(NC2CC3(C2)CC3(F)F)c1 (some centres unmarked) [Compound 441] | 0.05 to 0.5 µM | 0.5 to 5 µM | 0.05 to 0.5 µM | ≥ 10 µM | 1 to 10 µM | A (a Ki ratio greater than or equal to 10 fold between the Ki in the presence of SAM and the Ki in the presence of MTA) | C* (an IC50 ratio of less than 3 fold between the IC50 in the HAP1 MTAP-intact cell line and the HAP1 MTAP-deleted cell line)

Second part, led by results:

Row | IC50 (PRMT5 [1]) | IC50 (PRMT5 [2]) | IC50 (PRMT5 [3]) | IC50 (HAP1 MTAP-intact) | IC50 (HAP1 MTAP-deleted) | SMILES | SAM/MTA Ratio (PRMT5 [3]) | MTAP Intact/Deleted Ratio (HAP1 MTAP-deleted)
4 | 0.05 to 0.5 µM | ≥ 5 µM | 0.05 to 0.5 µM | ≥ 10 µM | 1 to 10 µM | COCCN(C)c1cc(C(=O)NC[C@H](O)CN2CCc3c(ccc(OCc4ocnc4C)c3C)C2)cc(NC2CCC2)n1 [Compound 437, 2-(cyclobutylamino)-N-[(2S)-2-hydroxy-3-{5-methyl-6-[(4-methyl-1,3-oxazol-5-yl)methoxy]-1,2,3,4-tetrahydroisoquinolin-2-yl}propyl]-6-[(2-methoxyethyl)(methyl)amino]pyridine-4-carboxamide] | A (a Ki ratio greater than or equal to 10 fold between the Ki in the presence of SAM and the Ki in the presence of MTA) | B* (an IC50 ratio greater than or equal to 3 fold but lower than 10 fold between the IC50 in the HAP1 MTAP-intact cell line and the HAP1 MTAP-deleted cell line)
5 | 0.05 to 0.5 µM | ≥ 5 µM | 0.05 to 0.5 µM | 1 to 10 µM | < 1 µM | Cc1ncoc1COc1ccc2c(c1)CCN(C[C@@H](O)CNC(=O)c1cc(CC(C)C)nc(NC3CCC3)c1)C2 [Compound 439, 2-(cyclobutylamino)-N-[(2S)-2-hydroxy-3-{6-[(4-methyl-1,3-oxazol-5-yl)methoxy]-1,2,3,4-tetrahydroisoquinolin-2-yl}propyl]-6-(2-methylpropyl)pyridine-4-carboxamide] | A (a Ki ratio greater than or equal to 10 fold between the Ki in the presence of SAM and the Ki in the presence of MTA) | C* (an IC50 ratio of less than 3 fold between the IC50 in the HAP1 MTAP-intact cell line and the HAP1 MTAP-deleted cell line)
